Tests used:
Am-CaV3 [1] = target: T1, Am-CaV3 (Apis mellifera, UniProt A0ACM8RFK5); experiment: two-electrode voltage clamp in Xenopus oocytes, Ba2+ current block; type: cell-based
T1 construct: gene LOC551883; full channel alpha1 subunit cloned from honeybee, mRNA injected in Xenopus oocytes, without CaVbeta; N-terminal region peptide CFDVPSSDGPSDPS (antibody antigen)

Am-CaV3 [2] = target: T1, Am-CaV3; experiment: as above; type: cell-based; settings: inhibition (blocker), 10 mM Ba2+, reversible, code printed NNC55-0398 in text, NNC 55-0396 in Figure 1 legend

T1 sequence (A0ACM8RFK5 1-2566): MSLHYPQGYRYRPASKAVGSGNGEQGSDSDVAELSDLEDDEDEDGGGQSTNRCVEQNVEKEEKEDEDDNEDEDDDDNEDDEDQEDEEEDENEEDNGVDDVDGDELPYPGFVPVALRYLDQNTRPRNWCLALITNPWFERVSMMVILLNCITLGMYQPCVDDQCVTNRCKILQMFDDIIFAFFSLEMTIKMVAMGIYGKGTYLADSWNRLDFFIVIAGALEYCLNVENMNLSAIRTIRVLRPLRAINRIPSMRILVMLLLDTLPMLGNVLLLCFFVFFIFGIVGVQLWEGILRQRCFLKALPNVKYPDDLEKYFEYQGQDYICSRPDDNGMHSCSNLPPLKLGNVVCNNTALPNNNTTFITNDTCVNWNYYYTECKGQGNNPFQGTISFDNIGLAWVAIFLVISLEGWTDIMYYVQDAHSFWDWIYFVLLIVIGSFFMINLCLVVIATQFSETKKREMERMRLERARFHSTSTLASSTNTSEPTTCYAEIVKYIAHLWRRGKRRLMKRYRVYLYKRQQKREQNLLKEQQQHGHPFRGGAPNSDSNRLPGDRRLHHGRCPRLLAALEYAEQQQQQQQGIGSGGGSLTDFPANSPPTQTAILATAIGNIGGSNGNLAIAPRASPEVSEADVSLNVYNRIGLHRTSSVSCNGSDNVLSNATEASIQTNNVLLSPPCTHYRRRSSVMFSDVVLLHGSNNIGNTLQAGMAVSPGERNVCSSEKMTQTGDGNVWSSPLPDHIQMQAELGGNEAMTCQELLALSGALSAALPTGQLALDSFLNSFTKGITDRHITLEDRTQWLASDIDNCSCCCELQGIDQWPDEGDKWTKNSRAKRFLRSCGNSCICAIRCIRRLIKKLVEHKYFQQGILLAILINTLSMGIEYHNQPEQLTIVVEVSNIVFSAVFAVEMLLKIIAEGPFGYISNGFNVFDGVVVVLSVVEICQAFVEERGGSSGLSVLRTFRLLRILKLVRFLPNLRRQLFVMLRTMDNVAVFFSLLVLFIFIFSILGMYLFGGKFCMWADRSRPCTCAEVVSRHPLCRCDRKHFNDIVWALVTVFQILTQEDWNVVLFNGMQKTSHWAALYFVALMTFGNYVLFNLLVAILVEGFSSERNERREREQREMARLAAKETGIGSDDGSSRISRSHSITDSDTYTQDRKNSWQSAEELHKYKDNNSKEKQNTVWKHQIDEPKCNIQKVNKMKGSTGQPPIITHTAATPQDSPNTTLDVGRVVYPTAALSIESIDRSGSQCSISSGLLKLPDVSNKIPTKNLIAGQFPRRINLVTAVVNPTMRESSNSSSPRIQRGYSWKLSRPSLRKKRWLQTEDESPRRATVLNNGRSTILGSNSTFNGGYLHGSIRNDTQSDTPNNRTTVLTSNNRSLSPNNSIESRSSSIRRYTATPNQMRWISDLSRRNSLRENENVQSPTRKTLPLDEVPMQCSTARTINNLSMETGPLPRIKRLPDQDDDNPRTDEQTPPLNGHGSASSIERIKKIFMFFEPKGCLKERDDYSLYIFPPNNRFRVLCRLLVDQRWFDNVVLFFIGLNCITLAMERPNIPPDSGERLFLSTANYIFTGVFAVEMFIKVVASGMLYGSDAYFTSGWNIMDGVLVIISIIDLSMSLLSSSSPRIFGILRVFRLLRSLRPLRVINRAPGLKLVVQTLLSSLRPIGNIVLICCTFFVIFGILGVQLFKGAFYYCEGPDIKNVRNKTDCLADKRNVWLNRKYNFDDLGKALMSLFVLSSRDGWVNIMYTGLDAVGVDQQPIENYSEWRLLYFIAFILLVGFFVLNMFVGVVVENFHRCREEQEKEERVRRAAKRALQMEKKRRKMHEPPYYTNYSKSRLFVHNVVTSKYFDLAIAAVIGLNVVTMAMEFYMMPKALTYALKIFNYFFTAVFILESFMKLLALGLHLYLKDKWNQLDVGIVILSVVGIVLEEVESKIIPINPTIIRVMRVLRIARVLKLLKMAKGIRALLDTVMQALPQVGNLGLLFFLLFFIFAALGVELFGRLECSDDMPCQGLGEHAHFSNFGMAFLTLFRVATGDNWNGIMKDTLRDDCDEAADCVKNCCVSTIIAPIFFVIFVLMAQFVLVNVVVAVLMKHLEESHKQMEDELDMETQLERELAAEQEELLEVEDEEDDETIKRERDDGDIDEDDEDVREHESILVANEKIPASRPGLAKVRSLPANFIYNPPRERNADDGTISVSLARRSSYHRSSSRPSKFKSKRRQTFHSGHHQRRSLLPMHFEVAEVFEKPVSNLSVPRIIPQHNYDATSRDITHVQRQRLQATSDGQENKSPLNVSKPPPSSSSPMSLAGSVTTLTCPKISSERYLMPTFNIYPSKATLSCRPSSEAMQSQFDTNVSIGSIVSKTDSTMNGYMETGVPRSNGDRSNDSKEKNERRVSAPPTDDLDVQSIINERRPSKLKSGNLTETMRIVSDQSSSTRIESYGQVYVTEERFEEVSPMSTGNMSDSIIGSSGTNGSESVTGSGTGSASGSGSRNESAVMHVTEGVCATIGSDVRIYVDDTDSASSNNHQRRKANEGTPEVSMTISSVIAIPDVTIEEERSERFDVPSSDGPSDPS

Row | Structure (SMILES) | EC50 (Am-CaV3 [1]) | residual current at 10 μM (Am-CaV3 [2])
1 | COCC(=O)O[C@]1(CCN(C)CCCc2nc3ccccc3[nH]2)CCc2cc(F)ccc2[C@@H]1C(C)C [Mi, mibefradil] | 3.5 µM | 
2 | CC(C)[C@H]1c2ccc(F)cc2CC[C@@]1(CCN(C)CCCc1nc2ccccc2[nH]1)OC(=O)C1CC1 [NN, NNC 55-0396] |  | The mibefradil analogue NNC55-0398 (NN) also had a similar potency

— article PMC5286435, “Honeybee locomotion is impaired by Am-CaV3 low voltage-activated Ca^2+ channel antagonist” (Scientific Reports, 2017)
